Reference: patent EP1803452A1, “ESTER DERIVATIVE AND PHARMACEUTICAL USE THEREOF” (Japan Tobacco, Inc., priority 2004, dated 2006)

Assays:
[1] = Metabolic stability test in liver S9; type: in vitro ADME; conditions: pH 7.4, human liver S9 2 mg protein/mL, LC/MS; for remaining at 10 min: unchanged form after 10 minutes at 37°C, read-out: Remaining rate in human liver S9 (%/10min); for remaining at 1 h: unchanged form after 60 minutes at 37°C, read-out: Remaining rate in human liver S9 (%/60min)
Outline: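 Compound from DMSO solution was incubated at 37°C with human liver S9 (final 2 mg protein/mL) in 100 mM potassium phosphate pH 7.4 with an NADPH-regenerating system for 0, 10 and 60 minutes. Reactions were stopped with acetonitrile/0.1% formic acid. Unchanged compound was measured by LC/MS as remaining rate (%) relative to zero time.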

[2] = Stability test in buffer (pH 7.4); type: physicochemical; conditions: phosphate buffer/acetonitrile 7:3, 100 mM potassium phosphate buffer (pH 7.4) and acetonitrile 7:3 (v/v), LC/MS; for remaining at 10 min: 10 minutes at 37°C, read-out: Buf. remaining rate (%/10min); for remaining at 1 h: 60 minutes at 37°C, read-out: Buf. remaining rate (%/60min)
Outline: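 Compound from DMSO solution incubated at 37°C in 100 mM potassium phosphate buffer/acetonitrile 7:3 (v/v) for 0, 10 and 60 min, then quenched with acetonitrile containing formic acid (final 0.1%). Unchanged compound in supernatant quantified by LC/MS; remaining rate (%) = amount at each time / amount at zero time × 100.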

[3] = Metabolic stability test in plasma; type: in vitro ADME, human; conditions: LC/MS; for remaining at 10 min: unchanged form after 10 minutes at 37°C in human plasma, read-out: Remaining rate in human plasma (%/10min); for remaining at 1 h: unchanged form after 60 minutes at 37°C in human plasma, read-out: Remaining rate in human plasma (%/60min)
Outline: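 Compound in DMSO spiked into human, mouse or hamster plasma, incubated at 37°C for 0, 10 and 60 minutes, then quenched with acetonitrile/formic acid (final 0.1%). Unchanged compound in supernatant quantified by LC/MS; remaining rate (%) relative to time zero.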

Row | remaining at 10 min [1] | remaining at 1 h [1] | remaining at 10 min [2] | remaining at 1 h [2] | remaining at 10 min [3] | remaining at 1 h [3] | SMILES
1 | 3% | 0% | 101% | 103% | 67% | 8% | COC(=O)c1ccc(OC(=O)CCCc2ccc(NC(=O)c3ccccc3-c3ccc(C(F)(F)F)cc3)c(C(=O)N(C)C)c2)c(C)c1 [Compound 1-66, 4-[4-(3-dimethylcarbamoyl-4-{(4'-trifluoromethylbiphenyl-2-carbonyl)amino}phenyl)butyryloxy]-3-methylbenzoic acid methyl ester]
2 | 3% | 0% | 103% | 105% | 77% | 17% | CCc1cc(C(=O)OC)ccc1OC(=O)CCCc1ccc(NC(=O)c2ccccc2-c2ccc(C(F)(F)F)cc2)c(C(=O)N(C)C)c1 [Compound 1-67, 4-[4-(3-dimethylcarbamoyl-4-{(4'-trifluoromethylbiphenyl-2-carbonyl)amino}phenyl)butyryloxy]-3-ethylbenzoic acid methyl ester]
3 | 11% | 3% | 101% | 103% | 77% | 18% | COC(=O)c1ccc(OC(=O)CCCc2ccc(NC(=O)c3ccccc3-c3ccc(C(F)(F)F)cc3)c(C(=O)N(C)C)c2)c(C(C)C)c1 [Compound 1-68, 4-[4-(3-dimethylcarbamoyl-4-{(4'-trifluoromethylbiphenyl-2-carbonyl)amino}phenyl)butyryloxy]-3-isopropylbenzoic acid methyl ester]
4 | 0% | 0% | 101% | 106% | 70% | 11% | COC(=O)c1ccc(OC(=O)CCCc2ccc(NC(=O)c3ccc(C)nc3-c3ccc(C(F)(F)F)cc3)c(C(=O)N(C)C)c2)c(C)c1 [Compound 1-69, 4-[4-(3-dimethylcarbamoyl-4-{[6-methyl-2-(4-trifluoromethylphenyl)pyridine-3-carbonyl]amino}phenyl)butyryloxy]-3-methylbenzoic acid methyl ester]
5 | 0% | 0% | 102% | 105% | 53% | 0% | CCOC(=O)c1ccc(OC(=O)CCCc2ccc(NC(=O)c3ccc(C)nc3-c3ccc(C(F)(F)F)cc3)c(C(=O)N(C)C)c2)cc1 [Compound 1-71, 4-[4-(3-dimethylcarbamoyl-4-{[6-methyl-2-(4-trifluoromethylphenyl)pyridine-3-carbonyl]amino}phenyl)butyryloxy]benzoic acid ethyl ester]
6 | 4% | 0% | 113% | 112% | 0% | 0% | COC(=O)c1cc(C(=O)OC(C)C)ccc1OC(=O)CCCc1ccc(NC(=O)c2ccc(C)nc2-c2ccc(C(F)(F)F)cc2)c(C(=O)N(C)C)c1 [Compound 1-72, 4-[4-(3-dimethylcarbamoyl-4-{[6-methyl-2-(4-trifluoromethylphenyl)pyridine-3-carbonyl]amino}phenyl)butyryloxy]isophthalic acid 1-isopropyl ester 3-methyl ester]
7 | 10% | 0% | 101% | 101% | 78% | 19% | CCc1cc(C(=O)OC)cc(Cl)c1OC(=O)CCCc1ccc(NC(=O)c2ccc(C)nc2-c2ccc(C(F)(F)F)cc2)c(C(=O)N(C)C)c1 [Compound 1-73, 3-chloro-4-[4-(3-dimethylcarbamoyl-4-{[6-methyl-2-(4-trifluoromethylphenyl)pyridine-3-carbonyl]amino}phenyl)butyryloxy]-5-ethylbenzoic acid methyl ester]
8 | 24% | 9% | 102% | 101% | 77% | 19% | COC(=O)c1cc(Cl)c(OC(=O)CCCc2ccc(NC(=O)c3ccc(C)nc3-c3ccc(C(F)(F)F)cc3)c(C(=O)N(C)C)c2)c(C(C)C)c1 [Compound 1-74, 3-chloro-4-[4-(3-dimethylcarbamoyl-4-{[6-methyl-2-(4-trifluoromethylphenyl)pyridine-3-carbonyl]amino}phenyl)butyryloxy]-5-isopropylbenzoic acid methyl ester]
9 | 23% | 3% | 113% | 124% | 0% | 0% | CCCOC(=O)c1cc(Cl)c(OC(=O)CCCc2ccc(NC(=O)c3ccc(C)nc3-c3ccc(C(F)(F)F)cc3)c(C(=O)N(C)C)c2)c(OC)c1 [Compound 1-75, 3-chloro-4-[4-(3-dimethylcarbamoyl-4-{[6-methyl-2-(4-trifluoromethylphenyl)pyridine-3-carbonyl]amino}phenyl)butyryloxy]-5-methoxybenzoic acid propyl ester]
10 | 5% | 2% | 99% | 100% | 50% | 1% | CC(C)OCCOC(=O)c1ccc(OC(=O)CCCc2ccc(NC(=O)c3ccccc3-c3ccc(C(F)(F)F)cc3)c(C(=O)N(C)C)c2)cc1 [Compound 1-76, 4-[4-(3-dimethylcarbamoyl-4-{(4'-trifluoromethylbiphenyl-2-carbonyl)amino}phenyl)butyryloxy]benzoic acid 2-isopropoxyethyl ester]
11 | 0% | 0% | 99% | 100% | 59% | 2% | CC(=O)NCCOC(=O)c1ccc(OC(=O)CCCc2ccc(NC(=O)c3ccccc3-c3ccc(C(F)(F)F)cc3)c(C(=O)N(C)C)c2)cc1 [Compound 1-77, 4-[4-(3-dimethylcarbamoyl-4-{(4'-trifluoromethylbiphenyl-2-carbonyl)amino}phenyl)butyryloxy]benzoic acid 2-acetylaminoethyl ester]
12 | 10% | 2% | 97% | 97% | 51% | 2% | CN(C)C(=O)c1cc(CCCC(=O)Oc2ccc(C(=O)OCC(=O)OCc3ccccc3)cc2)ccc1NC(=O)c1ccccc1-c1ccc(C(F)(F)F)cc1 [Compound 1-78, 4-[4-(3-dimethylcarbamoyl-4-{(4'-trifluoromethylbiphenyl-2-carbonyl)amino}phenyl)butyryloxy]benzoic acid benzyloxycarbonylmethyl ester]
13 | 20% | 4% | 96% | 95% | 0% | 0% | CN(C)C(=O)c1cc(CCCC(=O)Oc2ccc(C(=O)OCc3ccc(Cl)cc3)cc2)ccc1NC(=O)c1ccccc1-c1ccc(C(F)(F)F)cc1 [Compound 1-79, 4-[4-(3-dimethylcarbamoyl-4-{(4'-trifluoromethylbiphenyl-2-carbonyl)amino}phenyl)butyryloxy]benzoic acid 4-chlorobenzyl ester]
14 | 5% | 0% | 100% | 101% | 4% | 0% | Cc1ccc(C(=O)Nc2ccc(CCCC(=O)Oc3ccc(C(=O)OCc4ccccc4)cc3)cc2C(=O)N(C)C)c(-c2ccc(C(F)(F)F)cc2)n1 [Compound 1-80, 4-[4-(3-dimethylcarbamoyl-4-{[6-methyl-2-(4-trifluoromethylphenyl)pyridine-3-carbonyl]amino}phenyl)butyryloxy]benzoic acid benzyl ester]
15 | 4% | 1% | 99% | 97% | 51% | 2% | Cc1ccc(C(=O)Nc2ccc(CCCC(=O)Oc3ccc(C(=O)OC(C)C)cc3)cc2C(=O)N(C)C)c(-c2ccc(C(F)(F)F)cc2)n1 [Compound 1-81, 4-[4-(3-dimethylcarbamoyl-4-{[6-methyl-2-(4-trifluoromethylphenyl)pyridine-3-carbonyl]amino}phenyl)butyryloxy]benzoic acid isopropyl ester]
16 | 0% | 0% | 100% | 103% | 17% | 0% | CN(C)C(=O)c1cc(CCCC(=O)Oc2ccc(C(=O)OCc3ccccn3)cc2)ccc1NC(=O)c1ccccc1-c1ccc(C(F)(F)F)cc1 [Compound 1-82, 4-[4-(3-dimethylcarbamoyl-4-{(4'-trifluoromethylbiphenyl-2-carbonyl)amino}phenyl)butyryloxy]benzoic acid pyridin-2-ylmethyl ester]
